US20260286396A1, “AXL KNOCK OUT CAR T CELLS AND METHODS FOR USE THEREOF” (priority 2023, published 2026)

Test system: CART19 cells
Test: RNA sequencing of CART19 cells with Ingenuity pathway analysis (pathways, upstream regulators)
Format: cell-based, human
Settings: CART19+JeKo-1, 30 nM TP-0903 vs vehicle, 24 h
Procedure: CART19 cells were isolated using CD4 and CD8 microbeads to […] the JeKo-1 target cells; this isolation step was performed twice to eliminate the possible contamination of JeKo-1 cells. RNA was isolated from the CART19 cells using QIAGEN RNEASY® Plus Mini Kit. RNA was further treated with DNase I (QIAGEN) and purified using RNA Clean & Concentrator (Zymo Research). […] The fastq files were viewed in FastQC to check for quality (Cox et al., Mol Ther., 29 (4): 1529-1540, 2020). After verifying the lack of adapter sequences with FastQC, Cutadapt (Martin, EMBnet, 17:10-12, 2011) was used to filter for reads greater than 32 base pairs. Output files were re-checked for quality using FastQC. The latest human reference genome (GRCh38.p13) was downloaded from NCBI. Genome index files were generated using STAR (Cox et al. 2020, supra, and Dobin et al., Bioinformatics, 29:15-21, 2012). Paired end reads from fastq files were mapped to the genome for each condition. HTSeq was used to generate expression counts for each gene (Cox et al. 2020, supra; and Putri et al., Bioinformatics, 38:2943-2945, 2022). […] The disruption efficiency of the CRISPR/Cas9 GM-CSF knockout was determined using targeted sequencing through PCR and TIDE analysis (software available at tide.nki.nl) as described elsewhere (Sakemura et al. 2021, supra).
RNA sequencing of CART19 cells was then performed. […] Data were analyzed with the use of QIAGEN Ingenuity Pathway Analysis (IPA) (digitalinsights.qiagen.com/IPA; Krämer et al., Bioinformatics 30 (4): 523-530, 2014).

CN1CCN(Cc2ccc(Nc3ncc(Cl)c(Nc4ccccc4S(=O)(=O)N(C)C)n3)cc2)CC1 [TP-0903, Dubermatinib]
ABCG1 Expr Log Ratio: −0.301 | ADORA2A Expr Log Ratio: 0.629 | ADRA1B Expr Log Ratio: −0.268 | AGPAT2 Expr Log Ratio: 0.051 | ALDH2 Expr Log Ratio: −0.892 | APP Expr Log Ratio: 0.132 | ARHGAP5 Expr Log Ratio: 0.025 | ARNT Expr Log Ratio: −0.009 | ATF3 Expr Log Ratio: −0.209 | ATF4 Expr Log Ratio: −0.52 | BCAP31 Expr Log Ratio: 0.118 | BCL3 Expr Log Ratio: 0.097 | BCL6 Expr Log Ratio: 0.021 | BMP7 Expr Log Ratio: −0.942 | BMP10 Expr Log Ratio: −1.585 | BTK Expr Log Ratio: −0.323 | C3 Expr Log Ratio: 0.511 | CALCA Expr Log Ratio: −1.865 | CCND1 Expr Log Ratio: −0.129 | CCR3 Expr Log Ratio: −0.728 | CD2 Expr Log Ratio: 0.318 | CD5 Expr Log Ratio: 0.33 | CD28 Expr Log Ratio: 0.407 | CD38 Expr Log Ratio: −0.087 | CD40LG Expr Log Ratio: 0.131 | CD44 Expr Log Ratio: 0.428 | CD48 Expr Log Ratio: 0.067 | CD274 Expr Log Ratio: −0.506 | COMMD1 Expr Log Ratio: 0.174 | DUSP10 Expr Log Ratio: 0.211 | EBF1 Expr Log Ratio: −0.235 | EDN1 Expr Log Ratio: −0.099 | EIF2AK4 Expr Log Ratio: −0.2 | EPX Expr Log Ratio: −0.176 | ERBB2 Expr Log Ratio: −0.057 | FHL2 Expr Log Ratio: 0.639 | FMR1 Expr Log Ratio: 0.099 | FYN Expr Log Ratio: 0.259 | GAS5-AS1 Expr Log Ratio: −0.022 | GNA14 Expr Log Ratio: −2.841 | HAVCR1 Expr Log Ratio: −0.121 | IGF1 Expr Log Ratio: −0.149 | IGF1R Expr Log Ratio: −0.155 | IKBKB Expr Log Ratio: −0.036 | IKZF2 Expr Log Ratio: −0.318 | IL4R Expr Log Ratio: 0.093 | IL10 Expr Log Ratio: −0.008 | IL15 Expr Log Ratio: 0.191 | IL18 Expr Log Ratio: 0.03 | IL21 Expr Log Ratio: −0.452 | INSIG1 Expr Log Ratio: −0.836 | IRF4 Expr Log Ratio: −0.587 | ITGB2 Expr Log Ratio: 0.114 | KDM1A Expr Log Ratio: 0.09 | KRAS Expr Log Ratio: 0.11 | LEF1 Expr Log Ratio: 0.105 | LGALS3 Expr Log Ratio: −0.014 | LTA Expr Log Ratio: 0.37 | LTBR Expr Log Ratio: 0.08 | MAPK3 Expr Log Ratio: −0.166 | MAPK7 Expr Log Ratio: −0.017 | MBP Expr Log Ratio: 0.105 | MED1 Expr Log Ratio: −0.112 | MIR-29 Expr Log Ratio: −3.808 | MYB Expr Log Ratio: −0.03 | MYDGF Expr Log Ratio: −0.06 | NFATC1 Expr Log Ratio: 0.232 | NFE2L2 Expr Log Ratio: 0.172 | NFIL3 Expr Log Ratio: −0.13 | NFKBIA Expr Log Ratio: 0.173 | NPAT Expr Log Ratio: −0.021 | NR4A2 Expr Log Ratio: 0.982 | NREP Expr Log Ratio: −0.21 | PAF1 Expr Log Ratio: 0.135 | PDCD1 Expr Log Ratio: 0.967 | POU2F1 Expr Log Ratio: −0.356 | PRDM1 Expr Log Ratio: −0.006 | PRKCZ Expr Log Ratio: 0.36 | PTEN Expr Log Ratio: 1.201 | PTPRJ Expr Log Ratio: 0.044 | RAD21L1 Expr Log Ratio: 0.844 | RAMP1 Expr Log Ratio: −0.296 | RRP1B Expr Log Ratio: −0.087 | RXRA Expr Log Ratio: −0.75 | SATB2 Expr Log Ratio: −0.715 | SIRT6 Expr Log Ratio: −0.028 | SMAD2 Expr Log Ratio: −0.395 | SMAD7 Expr Log Ratio: 0.057 | SMC1B Expr Log Ratio: −0.146 | SNCA Expr Log Ratio: 1.134 | SORL1 Expr Log Ratio: 0.047 | SPI1 Expr Log Ratio: −0.215 | SREBF1 Expr Log Ratio: −0.191 | SREBF2 Expr Log Ratio: −0.048 | STAG3 Expr Log Ratio: −0.19 | STARD7 Expr Log Ratio: −0.076 | SUCNR1 Expr Log Ratio: −1.022 | TEAD3 Expr Log Ratio: −0.396 | TERT Expr Log Ratio: −0.599 | TGFB1 Expr Log Ratio: −0.094 | TGFB3 Expr Log Ratio: 0.178 | TGFBR2 Expr Log Ratio: 0.18 | TLR2 Expr Log Ratio: 0.013 | TLR7 Expr Log Ratio: −1.275 | TNFRSF4 Expr Log Ratio: 0.263 | TNFSF15 Expr Log Ratio: 1.42 | TPH1 Expr Log Ratio: 0.019 | TRAF3 Expr Log Ratio: 0.022 | WNT5B Expr Log Ratio: −0.491 | YAP1 Expr Log Ratio: −0.546 | upstream regulator ABCG1 Activation Z-Score: 1.387 | upstream regulator ADORA2A Activation Z-Score: −0.245 | upstream regulator AGPAT2 Activation Z-Score: 1 | upstream regulator ALDH2 Activation Z-Score: 1.432 | upstream regulator APP Activation Z-Score: −2.018 | upstream regulator APP Predicted Activation State: inhibited | upstream regulator ARNT Activation Z-Score: −1.795 | upstream regulator ATF3 Activation Z-Score: −1.227 | upstream regulator ATF4 Activation Z-Score: −2.62 | upstream regulator ATF4 Predicted Activation State: inhibited | upstream regulator BCAP31 Activation Z-Score: −0.968 | upstream regulator BCL3 Activation Z-Score: −1.353 | upstream regulator BCL6 Activation Z-Score: 0.949 | upstream regulator BCR (COMPLEX) Activation Z-Score: −1.126 | upstream regulator BMP7 Activation Z-Score: −1.089 | upstream regulator BMP10 Activation Z-Score: −0.707 | upstream regulator BTK Activation Z-Score: −1.091 | upstream regulator C3 Activation Z-Score: −0.378 | upstream regulator CALCA Activation Z-Score: 0.887 | upstream regulator CCK Activation Z-Score: 0.437 | upstream regulator CCL2 Activation Z-Score: −1.368 | upstream regulator CCND1 Activation Z-Score: 0.042 | upstream regulator CD5 Activation Z-Score: −1.732 | upstream regulator CD28 Activation Z-Score: −1.369 | upstream regulator CD38 Activation Z-Score: −1.353 | upstream regulator CD40LG Activation Z-Score: −2.045 | upstream regulator CD40LG Predicted Activation State: inhibited | upstream regulator CD44 Activation Z-Score: −1.835 | upstream regulator CD274 Activation Z-Score: 0.478 | upstream regulator CG Activation Z-Score: −0.872 | upstream regulator COMMD1 Predicted Activation State: activated | upstream regulator DUSP10 Activation Z-Score: 0.392 | upstream regulator EBF1 Activation Z-Score: −2.182 | upstream regulator EBF1 Predicted Activation State: inhibited | upstream regulator EDN1 Activation Z-Score: −1.02 | upstream regulator EIF2AK4 Activation Z-Score: −2.395 | upstream regulator EIF2AK4 Predicted Activation State: inhibited | upstream regulator ERBB2 Activation Z-Score: −2.46 | upstream regulator ERBB2 Predicted Activation State: inhibited | upstream regulator ERK1/2 Activation Z-Score: −0.915 | upstream regulator ERK Activation Z-Score: −2.029 | upstream regulator ERK Predicted Activation State: inhibited | upstream regulator FHL2 Activation Z-Score: −0.64 | upstream regulator FMR1 Activation Z-Score: 1.976 | upstream regulator FYN Activation Z-Score: −1.446 | upstream regulator HAVCR1 Activation Z-Score: 0.104 | upstream regulator HNF1A-AS1 Activation Z-Score: −2 | upstream regulator HNF1A-AS1 Predicted Activation State: inhibited | upstream regulator ID3 Activation Z-Score: 1.671 | upstream regulator IFN ALPHA/BETA Activation Z-Score: −1.195 | upstream regulator IGF1 Activation Z-Score: −1.148 | upstream regulator IGF1R Activation Z-Score: −0.652 | upstream regulator IKBKB Activation Z-Score: −2.146 | upstream regulator IKBKB Predicted Activation State: inhibited | upstream regulator IL1 Activation Z-Score: −1.785 | upstream regulator IL4R Activation Z-Score: −0.187 | upstream regulator IL10 Activation Z-Score: 1.633 | upstream regulator IL12 (FAMILY) Activation Z-Score: 1.39 | upstream regulator IL15 Activation Z-Score: −1.117 | upstream regulator IL18 Activation Z-Score: −0.28 | upstream regulator IL21 Activation Z-Score: 0.183 | upstream regulator IL27RA Activation Z-Score: 2.207 | upstream regulator IL27RA Predicted Activation State: activated | upstream regulator INSIG1 Activation Z-Score: 1.495 | upstream regulator INSULIN Activation Z-Score: −1.452 | upstream regulator IRF4 Activation Z-Score: 0.415 | upstream regulator ITGB2 Activation Z-Score: −0.128 | upstream regulator KCNIP3 Activation Z-Score: 0.378 | upstream regulator KDM1A Activation Z-Score: 0.351 | upstream regulator KRAS Activation Z-Score: −0.772 | upstream regulator LEF1 Activation Z-Score: 0.367 | upstream regulator LGALS3 Activation Z-Score: −0.747 | upstream regulator LTA Activation Z-Score: −1.763 | upstream regulator LTB Activation Z-Score: −1.246 | upstream regulator LTBR Activation Z-Score: −1.664 | upstream regulator MAPK3 Activation Z-Score: −0.896 | upstream regulator MAPK7 Activation Z-Score: −0.64 | upstream regulator MBP Activation Z-Score: 0.577 | upstream regulator MED1 Activation Z-Score: −1.671 | upstream regulator MIR-29 Activation Z-Score: 1.128 | upstream regulator MIR-450A-5P (AND OTHER MIRNAS W/SEED UUUGCGA) Predicted Activation State: activated | upstream regulator MIRLET7 Activation Z-Score: 0 | upstream regulator MLXIPL Predicted Activation State: inhibited | upstream regulator MTORC1 Activation Z-Score: −2.087 | upstream regulator MTORC1 Predicted Activation State: inhibited | upstream regulator MYB Activation Z-Score: −1.742 | upstream regulator NFAT (FAMILY) Activation Z-Score: −2.176 | upstream regulator NFAT (FAMILY) Predicted Activation State: inhibited | upstream regulator NFATC1 Activation Z-Score: −1.4 | upstream regulator NFE2L2 Activation Z-Score: −1.966 | upstream regulator NFIL3 Activation Z-Score: −2.2 | upstream regulator NFIL3 Predicted Activation State: inhibited | upstream regulator NFKBIA Activation Z-Score: −0.758 | upstream regulator NR4A2 Activation Z-Score: 0.898 | upstream regulator NREP Activation Z-Score: 0.218 | upstream regulator NRG1 Activation Z-Score: −1.949 | upstream regulator P38 MAPK Activation Z-Score: −2.405 | upstream regulator P38 MAPK Predicted Activation State: inhibited | upstream regulator PDCD1 Activation Z-Score: 0.055 | upstream regulator PDX1 Activation Z-Score: 0.24 | upstream regulator POSTN Activation Z-Score: −1 | upstream regulator PRDM1 Activation Z-Score: 0.122 | upstream regulator PRKCZ Activation Z-Score: −0.167 | upstream regulator PTEN Activation Z-Score: 0.449 | upstream regulator PTPRJ Activation Z-Score: 0 | upstream regulator RAS Activation Z-Score: −2.375 | upstream regulator RAS Predicted Activation State: inhibited | upstream regulator RXRA Activation Z-Score: 1.069 | upstream regulator SATB2 Activation Z-Score: −0.152 | upstream regulator SIRT6 Activation Z-Score: 0.064 | upstream regulator SMAD2 Activation Z-Score: −1.681 | upstream regulator SMAD7 Activation Z-Score: −0.135 | upstream regulator SNCA Activation Z-Score: −0.246 | upstream regulator SORL1 Activation Z-Score: −2.714 | upstream regulator SORL1 Predicted Activation State: inhibited | upstream regulator SPI1 Activation Z-Score: −1.174 | upstream regulator SREBF1 Activation Z-Score: −3.191
